From US3956487A, “Novel antifungal antibiotic substance, and agricultural and horticultural fungicidal composition containing said substance” (Nihon Tokushu Noyaku Seizo Kabushiki Kaisha, priority 1974, dated 1976)
Values after ≈ are worked out from the molar mass of the structure shown. Read-outs that look alike come from different tables or passages of the source.

Columns and labels:
Vibrio comma 904 = test: MIC, agar dilution method; assay type: cell-based
Xanthomonas citri = test: MIC, agar dilution method; assay type: cell-based
[1] = test system: Brown rot (Sclerotinia cineria); test: Field test on brown rot of peach; assay type: in vivo; conditions: for Morbidity after 7 days since packaging: room temperature storage
Description: Test on Brown rot (Sclerotinia cineria) of peach (field test):
Both the morbidity upon harvest and morbidity of the fruit packed in a cardboard box for storage at room temperature were investigated.

[2] = test system: Staphylococcus aureus FDA 209 p
[3] = test system: Bacillus subtilis PCI 219
Sclerotinia cinerea [4] = conditions: 72 hours
Botorytis cinerea = conditions: 48 hours
Sclerotinia cinerea [5] = conditions: 200 mcg/ml solution, 2 days at 27°C
Mice = conditions: for LD50: mice; for No abnormality (dose): mouse, in vivo
[6] = not given; remark: listed apart in the source
Sclerotinia rot fungus [7] = conditions: curative, 48 hours
crops = conditions: ordinary dosages
Gray mold fungus [8] = test: Curative test on gray mold of bean leaves; conditions: 48 hours
Gray mold fungus [9] = test: Preventive test on gray mold of bean leaves
Sclerotinia rot fungus [10] = test: Preventive test on sclerotinia rot of bean leaves
[11] = 50 ppm, sprayed twice, 7-day interval

Compound: CC(N)C(=O)NC1COC(O)C(N)C1O (stereo not shown)
- minimum inhibitory concentration (MIC) (Vibrio comma 904; 24 hours): 12.5 µg/mL (≈ 57 µM)
- minimum inhibitory concentration (MIC) (Vibrio comma 904; 48 hours): 100 µg/mL (≈ 456 µM)
- minimum inhibitory concentration (MIC) (Xanthomonas citri; 48 hours): > 100 µg/mL
- minimum inhibitory concentration (MIC) (Xanthomonas citri; 72 hours): > 100 µg/mL
- Morbidity upon harvest [1, 11]: 0
- Morbidity after 7 days since packaging [1, 11]: 0
- minimum inhibitory concentration (MIC) ([2]; 24 hours): > 100 µg/mL
- minimum inhibitory concentration (MIC) ([2]; 48 hours): > 100 µg/mL
- minimum inhibitory concentration (MIC) (Sarcina lutea PCI 1001; 24 hours): 3.12 µg/mL (≈ 14.2 µM)
- minimum inhibitory concentration (MIC) (Sarcina lutea PCI 1001; 48 hours): 3.12 µg/mL (≈ 14.2 µM)
- minimum inhibitory concentration (MIC) ([3]; 24 hours): > 100 µg/mL
- minimum inhibitory concentration (MIC) ([3]; 48 hours): > 100 µg/mL
- minimum inhibitory concentration (MIC) (Mycobacterium ATCC 607; 24 hours): > 100 µg/mL
- minimum inhibitory concentration (MIC) (Mycobacterium ATCC 607; 48 hours): > 100 µg/mL
- minimum inhibitory concentration (MIC) (Escherichia coli NIHJ; 24 hours): 100 µg/mL (≈ 456 µM)
- minimum inhibitory concentration (MIC) (Escherichia coli NIHJ; 48 hours): > 100 µg/mL
- minimum inhibitory concentration (MIC) (Candida albicans; 48 hours): > 100 µg/mL
- minimum inhibitory concentration (MIC) (Candida albicans; 72 hours): > 100 µg/mL
- minimum inhibitory concentration (MIC) (Saccharomyces cerevisiae; 48 hours): > 100 µg/mL
- minimum inhibitory concentration (MIC) (Saccharomyces cerevisiae; 72 hours): > 100 µg/mL
- minimum inhibitory concentration (MIC) (Holmodendrum pedrosei; 48 hours): 25 µg/mL (≈ 114 µM)
- minimum inhibitory concentration (MIC) (Holmodendrum pedrosei; 72 hours): 25 µg/mL (≈ 114 µM)
- minimum inhibitory concentration (MIC) (Trichophyton rubrum; 48 hours): 100 µg/mL (≈ 456 µM)
- minimum inhibitory concentration (MIC) (Trichophyton rubrum; 72 hours): > 100 µg/mL
- minimum inhibitory concentration (MIC) (Ophiobolus miyabianus; 48 hours): 25 µg/mL (≈ 114 µM)
- minimum inhibitory concentration (MIC) (Ophiobolus miyabianus; 72 hours): 25 µg/mL (≈ 114 µM)
- minimum inhibitory concentration (MIC) (Aspergillus niger; 48 hours): > 100 µg/mL
- minimum inhibitory concentration (MIC) (Aspergillus niger; 72 hours): > 100 µg/mL
- minimum inhibitory concentration (MIC) (Xanthomonas oryzae; 48 hours): 50 µg/mL (≈ 228 µM)
- minimum inhibitory concentration (MIC) (Xanthomonas oryzae; 72 hours): 100 µg/mL (≈ 456 µM)
- minimum inhibitory concentration (MIC) (Alternaria japonica; 48 hours): 50 µg/mL (≈ 228 µM)
- minimum inhibitory concentration (MIC) (Alternaria japonica; 72 hours): 50 µg/mL (≈ 228 µM)
- minimum inhibitory concentration (MIC) (Alternaria kikuchiana; 48 hours): > 100 µg/mL
- minimum inhibitory concentration (MIC) (Alternaria kikuchiana; 72 hours): > 100 µg/mL
- minimum inhibitory concentration (MIC) (Sclerotinia cinerea [4]): 25 µg/mL (≈ 114 µM)
- minimum inhibitory concentration (MIC) (Sclerotinia sclerotiorum; 48 hours): 1.56 µg/mL (≈ 7.12 µM)
- minimum inhibitory concentration (MIC) (Sclerotinia sclerotiorum; 72 hours): 3.12 µg/mL (≈ 14.2 µM)
- minimum inhibitory concentration (MIC) (Botorytis fabae; 48 hours): 6.25 µg/mL (≈ 28.5 µM)
- minimum inhibitory concentration (MIC) (Botorytis fabae; 72 hours): 25 µg/mL (≈ 114 µM)
- minimum inhibitory concentration (MIC) (Botorytis cinerea): 6.25 µg/mL (≈ 28.5 µM)
- inhibition zone diameter (Sclerotinia cinerea [5]): about 35 mm
- LD50 (Mice; intravenous injection): 160 mg/kg
- LD50 (Mice; oral administration): 750 mg/kg
- No abnormality (dose) (Mice; iv): 125 mg/kg
- No abnormality (dose) (Mice; po): 500 mg/kg
- no trouble (concentration) (Young carp): 250 ppm
- Solubility in dimethyl sulfoxide (dimethyl sulfoxide): Soluble
- Solubility in ethanol (ethanol): sparingly soluble
- Solubility in methanol (methanol): Soluble
- stability on standing ([6]; allowed to stand for a long time): activity became lower and it coloured in yellow
- retention of activity ([6]; in an acidic solution): retains its activity
- stability ([6]; in the form of aqueous solution): very stable
- retention of activity ([6]; solution neutral to alkaline): activity is reduced
- Diameter of the disease spot after spraying (Sclerotinia rot fungus [7]; 50 ppm): 19.6 mm
- Disease spot inhibiting rate (Sclerotinia rot fungus [7]; 50 ppm): 62%
- Diameter of the disease spot after spraying (Sclerotinia rot fungus [7]; 100 ppm): 16.3 mm
- Disease spot inhibiting rate (Sclerotinia rot fungus [7]; 100 ppm): 76%
- phytotoxicity to crops (crops): does not give phytotoxicity to crops
- antibacterial action (various bacteria): only weak antibacterial action
- Diameter of the disease spot after spraying (Gray mold fungus [8]; 25 ppm): 19.3 mm
- Disease spot inhibiting rate (Gray mold fungus [8]; 25 ppm): 59%
- Diameter of the disease spot after spraying (Gray mold fungus [8]; 50 ppm): 17.0 mm
- Disease spot inhibiting rate (Gray mold fungus [8]; 50 ppm): 75%
- Diameter of the disease spot after spraying (Gray mold fungus [8]; 100 ppm): 16.3 mm
- Disease spot inhibiting rate (Gray mold fungus [8]; 100 ppm): 81%

Compound: CC(N)C(=O)NC1COC(O)C(N)C1O.Cl (stereo not shown)
- Diameter of disease spot (Gray mold fungus [9]; 25 ppm): 23 mm
- Disease spot inhibiting rate (Gray mold fungus [9]; 25 ppm): 23%
- Diameter of disease spot (Gray mold fungus [9]; 50 ppm): 10 mm
- Disease spot inhibiting rate (Gray mold fungus [9]; 50 ppm): 67%
- Diameter of disease spot (Sclerotinia rot fungus [10]; 25 ppm): 10 mm
- Disease spot inhibiting rate (Sclerotinia rot fungus [10]; 25 ppm): 71%
- Diameter of disease spot (Sclerotinia rot fungus [10]; 50 ppm): 0 mm
- Disease spot inhibiting rate (Sclerotinia rot fungus [10]; 50 ppm): 100%

Compound: CCCCNC(=O)n1c(NC(=O)OC)nc2ccccc21 [BENLATE, methyl-1-(butylcarbamoyl)-2-benzimidazole carbamate]
- Morbidity upon harvest ([1]; 50% product × 1000): 0.3
- Morbidity after 7 days since packaging ([1]; 50% product × 1000): 46.1

Compound: CC1(C)OC(=O)N(c2cc(Cl)cc(Cl)c2)C1=O [Sclex, 3-(3,5-dichlorophenyl)-5,5-dimethyloxazolidinedione-2,4]
- Morbidity upon harvest ([1]; 20% product × 1500): 0.03
- Morbidity after 7 days since packaging ([1]; 20% product × 1500): 7.7
- Diameter of the disease spot after spraying (Gray mold fungus [8]; 20% product × 1000 (200 ppm)): 17.7 mm
- Disease spot inhibiting rate (Gray mold fungus [8]; 20% product × 1000 (200 ppm)): 61%
